Results published in ChEMBL document CHEMBL1128542, “Synthesis and antiviral activity of benzyl-substituted imidazo [1,5-a]-1,3,5-triazine (5,8-diaza-7,9-dideazapurine) derivatives” (J Med Chem, 1995).

Assays:
Vero = experiment: Inhibitory concentration against parainfluenza-3 virus in vero cells; assay type: functional, cell-based; conditions: Chlorocebus sabaeus
[1] = Minimum toxic concentration required to cause a microscopically detectable alteration of normal vero cell morphology; assay type: toxicity, cell-based; conditions: chlorocebus sabaeus, Vero cells; read-out: MTC
MDCK [2] = experiment: Inhibitory concentration against influenza virus A in MDCK cells; assay type: functional, cell-based; conditions: Canis lupus familiaris
MDCK [3] = experiment: Inhibitory concentration against influenza virus B in MDCK cells; assay type: functional, cell-based; conditions: Canis lupus familiaris
CCRF-CEM = experiment: Cytotoxic concentration required to inhibit CEM cell proliferation by 50%.; assay type: functional; conditions: Homo sapiens
HeLa = experiment: Inhibitory concentration against respiratory syncytial virus in HeLa cells; assay type: functional, cell-based; conditions: Homo sapiens
[4] = Minimum toxic concentration required to cause a microscopically detectable alteration of normal HeLa cell morphology; assay type: toxicity, cell-based; conditions: human, HeLa cells; read-out: MTC
[5] = Minimum toxic concentration required to cause a microscopically detectable alteration of normal MDCK cell morphology; assay type: toxicity, cell-based, Canis lupus familiaris; conditions: dog, MDCK cells; read-out: MTC
[6] = system: Human immunodeficiency virus 1; experiment: Inhibitory concentration against HIV-1 replication; assay type: functional, organism-based
[7] = system: Human immunodeficiency virus 2; experiment: Inhibitory concentration against HIV-2 replication; assay type: functional, organism-based

## Cc1nc(C)n2c1NC=NC2N (centres undefined)
Vero
  IC50: > 1100 µM
[1]
  MCC: > 1100 µM
MDCK [2]
  IC50: > 1100 µM
MDCK [3]
  IC50: > 1100 µM
CCRF-CEM
  CC50: 115 µM
HeLa
  IC50: > 1100 µM
[4]
  MCC: > 1100 µM
[5]
  MCC: > 1100 µM

## Oc1ncnc2c(Cc3ccccc3)ncn12
Vero
  IC50: > 885 µM
[1]
  MCC: > 885 µM
MDCK [2]
  IC50: > 885 µM
MDCK [3]
  IC50: > 885 µM
CCRF-CEM
  CC50: 633 µM
HeLa
  IC50: 664 µM
[4]
  MCC: > 885 µM
[5]
  MCC: > 885 µM

## Cc1nc(C)n2c1NC(SCc1ccccc1)NC2=O (centres undefined)
Vero
  IC50: > 140 µM
[1]
  MCC: > 350 µM
MDCK [2]
  IC50: 69.9 µM
MDCK [3]
  IC50: 699 µM
CCRF-CEM
  CC50: 266 µM
HeLa
  IC50: 20.9 µM
[4]
  MCC: > 524 µM
[5]
  MCC: > 699 µM

## CSC1N=CNc2c(C)nc(C)n21 (centres undefined)
Vero
  IC50: > 515 µM
[1]
  MCC: 515 µM
MDCK [2]
  IC50: 103 µM
MDCK [3]
  IC50: 103 µM
CCRF-CEM
  CC50: 440 µM
HeLa
  IC50: > 515 µM
[4]
  MCC: 515 µM
[5]
  MCC: 515 µM

## Cc1nc(Cc2ccccc2)c2ncnc(O)n12
Vero
  IC50: > 417 µM
[1]
  MCC: 417 µM
MDCK [2]
  IC50: 625 µM
MDCK [3]
  IC50: > 833 µM
CCRF-CEM
  CC50: 262 µM
HeLa
  IC50: > 417 µM
[4]
  MCC: 417 µM
[5]
  MCC: > 833 µM

## Cc1ccc(CSC2NC(=O)n3cnc(CCCCCOCc4ccccc4)c3N2)cc1 (centres undefined)
Vero
  IC50: > 22.3 µM
[1]
  MCC: > 89.2 µM
MDCK [2]
  IC50: 5.3 µM
MDCK [3]
  IC50: 223 µM
CCRF-CEM
  CC50: 343 µM
HeLa
  IC50: 2.6 µM
[4]
  MCC: 44.6 µM
[5]
  MCC: 223 µM

## Cc1nc(C)n2c(=O)[nH]c(=S)[nH]c12
Vero
  IC50: > 1020 µM
[1]
  MCC: 1020 µM
MDCK [2]
  IC50: 510 µM
MDCK [3]
  IC50: > 1020 µM
CCRF-CEM
  CC50: 526 µM
HeLa
  IC50: > 510 µM
[4]
  MCC: 510 µM
[5]
  MCC: > 1020 µM

## CN(C)c1ncnc2c(Cc3ccccc3)ncn12
Vero
  IC50: > 790 µM
[1]
  MCC: > 790 µM
MDCK [2]
  IC50: > 790 µM
MDCK [3]
  IC50: > 790 µM
CCRF-CEM
  CC50: > 790 µM
HeLa
  IC50: 395 µM
[4]
  MCC: > 790 µM
[5]
  MCC: > 790 µM

## NC12CC3CC(CC(C3)C1)C2 [AMANTADINE]
MDCK [2]
  IC50: 661 µM
MDCK [3]
  IC50: > 1320 µM
HeLa
  IC50: > 661 µM
[4]
  MCC: 661 µM
[5]
  MCC: > 661 µM

## O=c1[nH]c(=S)[nH]c2c(Cc3ccccc3)ncn12
Vero
  IC50: > 775 µM
[1]
  MCC: 581 µM
MDCK [2]
  IC50: 54.2 µM
MDCK [3]
  IC50: > 581 µM
CCRF-CEM
  CC50: 430 µM
HeLa
  IC50: > 775 µM
[4]
  MCC: > 775 µM
[5]
  MCC: > 775 µM

## Cc1ncn2c(S)ncnc12
Vero
  IC50: > 602 µM
[1]
  MCC: 602 µM
MDCK [2]
  IC50: 181 µM
MDCK [3]
  IC50: 241 µM
CCRF-CEM
  CC50: 789 µM
HeLa
  IC50: > 602 µM
[4]
  MCC: 602 µM
[5]
  MCC: 602 µM

## Cc1ccc(Cc2ncn3c(=O)[nH]c(=S)[nH]c23)cc1
Vero
  IC50: > 735 µM
[1]
  MCC: > 735 µM
MDCK [2]
  IC50: 54.4 µM
MDCK [3]
  IC50: > 551 µM
CCRF-CEM
  CC50: > 735 µM
HeLa
  IC50: 257 µM
[4]
  MCC: > 735 µM
[5]
  MCC: > 735 µM

## NC(=O)c1ncn([C@@H]2O[C@H](CO)[C@@H](O)[C@H]2O)n1 [RIBAVIRIN]
Vero
  IC50: 287 µM
[1]
  MCC: > 1640 µM
MDCK [2]
  IC50: 4.9 µM
HeLa
  IC50: 11.4 µM
[4]
  MCC: > 820 µM
[5]
  MCC: > 820 µM

## Cc1ncn2c1NC=NC2N (centres undefined)
Vero
  IC50: > 671 µM
[1]
  MCC: 671 µM
MDCK [2]
  IC50: > 1340 µM
MDCK [3]
  IC50: > 1340 µM
CCRF-CEM
  CC50: 746 µM
HeLa
  IC50: > 1340 µM
[4]
  MCC: > 1340 µM
[5]
  MCC: > 1340 µM

## Cc1ccc(Cc2ncn3c(S)ncnc23)cc1
Vero
  IC50: 6.2 µM
[1]
  MCC: 4.6 µM
MDCK [2]
  IC50: 2.7 µM
MDCK [3]
  IC50: 0.6 µM
CCRF-CEM
  CC50: 32.8 µM
HeLa
  IC50: 0.6 µM
[4]
  MCC: 6.2 µM
[5]
  MCC: 3.1 µM

## Sc1ncnc2c(Cc3ccccc3)ncn12
Vero
  IC50: 33 µM
[1]
  MCC: 24.7 µM
MDCK [2]
  IC50: 4.9 µM
MDCK [3]
  IC50: 3.3 µM
[6]
  IC50: 20.6 µM
CCRF-CEM
  CC50: 35.1 µM
HeLa
  IC50: 3.3 µM
[7]
  IC50: 17.7 µM
[4]
  MCC: 16.5 µM
[5]
  MCC: 16.5 µM

## CSC1NC(=O)n2cnc(Cc3ccc(C)cc3)c2N1 (centres undefined)
Vero
  IC50: 136 µM
[1]
  MCC: > 339 µM
MDCK [2]
  IC50: 27.1 µM
MDCK [3]
  IC50: 67.7 µM
CCRF-CEM
  CC50: 75.3 µM
HeLa
  IC50: 4 µM
[4]
  MCC: 20.3 µM
[5]
  MCC: 67.7 µM

## O=c1[nH]c(=S)[nH]c2c(CCCCCOCc3ccccc3)ncn12
MDCK [2]
  IC50: 174 µM
MDCK [3]
  IC50: > 291 µM
CCRF-CEM
  CC50: 259 µM
HeLa
  IC50: 23.2 µM
[4]
  MCC: 87.2 µM
[5]
  MCC: 291 µM

## Cc1ncn2c(=O)[nH]c(=S)[nH]c12
Vero
  IC50: > 1100 µM
[1]
  MCC: 1100 µM
MDCK [2]
  IC50: > 1100 µM
MDCK [3]
  IC50: > 1100 µM
CCRF-CEM
  CC50: 786 µM
HeLa
  IC50: > 550 µM
[4]
  MCC: 549 µM
[5]
  MCC: > 1100 µM

## CSC1NC(=O)n2cnc(CCCCCOCc3ccccc3)c2N1 (centres undefined)
Vero
  IC50: > 27.9 µM
[1]
  MCC: > 112 µM
MDCK [2]
  IC50: 11.1 µM
MDCK [3]
  IC50: 55.8 µM
CCRF-CEM
  CC50: > 120 µM
HeLa
  IC50: 2.2 µM
[4]
  MCC: 11.1 µM
[5]
  MCC: 55.8 µM

## CSc1ncnc2c(Cc3ccc(C)cc3)ncn12
Vero
  IC50: > 148 µM
[1]
  MCC: > 370 µM
MDCK [2]
  IC50: 14.8 µM
MDCK [3]
  IC50: 74 µM
CCRF-CEM
  CC50: 389 µM
HeLa
  IC50: 22.2 µM
[4]
  MCC: 74 µM
[5]
  MCC: 74 µM

## CSC1N=CNc2c(C)ncn21 (centres undefined)
Vero
  IC50: > 222 µM
[1]
  MCC: 111 µM
MDCK [2]
  IC50: 22.2 µM
MDCK [3]
  IC50: 22.2 µM
CCRF-CEM
  CC50: 176 µM
HeLa
  IC50: 111 µM
[4]
  MCC: 556 µM
[5]
  MCC: 111 µM

## Cc1ccc(CSc2ncnc3c(Cc4ccc(C)cc4)ncn23)cc1
Vero
  IC50: > 278 µM
[1]
  MCC: 278 µM
MDCK [2]
  IC50: > 278 µM
MDCK [3]
  IC50: > 278 µM
CCRF-CEM
  CC50: > 111 µM
HeLa
  IC50: > 278 µM
[4]
  MCC: 278 µM
[5]
  MCC: 278 µM

## Cc1ccc(CSC2NC(=O)n3cnc(Cc4ccc(C)cc4)c3N2)cc1 (centres undefined)
Vero
  IC50: > 104 µM
[1]
  MCC: > 260 µM
MDCK [2]
  IC50: 4.1 µM
MDCK [3]
  IC50: 51.9 µM
CCRF-CEM
  CC50: 44.6 µM
HeLa
  IC50: 1.4 µM
[4]
  MCC: 10.3 µM
[5]
  MCC: 260 µM

## Cc1ccc(Cc2ncn3c(O)ncnc23)cc1
Vero
  IC50: > 833 µM
[1]
  MCC: 625 µM
MDCK [2]
  IC50: > 833 µM
MDCK [3]
  IC50: > 833 µM
CCRF-CEM
  CC50: > 833 µM
HeLa
  IC50: > 833 µM
[4]
  MCC: > 833 µM
[5]
  MCC: > 833 µM

## Cc1ccc(CSC2NC(=O)n3c(C)nc(C)c3N2)cc1 (centres undefined)
Vero
  IC50: > 131 µM
[1]
  MCC: 328 µM
MDCK [2]
  IC50: 65.6 µM
MDCK [3]
  IC50: > 328 µM
CCRF-CEM
  CC50: 88.8 µM
HeLa
  IC50: 15.7 µM
[4]
  MCC: 328 µM
[5]
  MCC: 328 µM

## Cc1nc(C)n2c(S)ncnc12
Vero
  IC50: > 556 µM
[1]
  MCC: 556 µM
MDCK [2]
  IC50: 222 µM
MDCK [3]
  IC50: 833 µM
CCRF-CEM
  CC50: > 694 µM
HeLa
  IC50: > 556 µM
[4]
  MCC: 556 µM
[5]
  MCC: > 1110 µM

## Cc1ccc(Cc2ncn3c(N(C)C)ncnc23)cc1
Vero
  IC50: > 374 µM
[1]
  MCC: 374 µM
MDCK [2]
  IC50: > 749 µM
MDCK [3]
  IC50: > 749 µM
CCRF-CEM
  CC50: 412 µM
HeLa
  IC50: > 749 µM
[4]
  MCC: > 749 µM
[5]
  MCC: > 749 µM
